Test results from patent US7332279B2 (Glycozym APS, priority 1999, dated 2008).
Where two headings read alike, the source gives them in different places.

Tests used:
Format in all cases: biochemical
β3Gal-T2 = biological target: T1, β3Gal-T2 (Homo sapiens, UniProt O43825); assay: Galactosyltransferase assay, recombinant β3Gal-T2, saccharide acceptors
T1 construct: The kinetic properties were determined with partially purified, secreted forms of the enzymes; made in house; host or cells: baculovirus; Sf9 / High Five insect cells, medium
T1 sequence (O43825 46-422 limits assumed): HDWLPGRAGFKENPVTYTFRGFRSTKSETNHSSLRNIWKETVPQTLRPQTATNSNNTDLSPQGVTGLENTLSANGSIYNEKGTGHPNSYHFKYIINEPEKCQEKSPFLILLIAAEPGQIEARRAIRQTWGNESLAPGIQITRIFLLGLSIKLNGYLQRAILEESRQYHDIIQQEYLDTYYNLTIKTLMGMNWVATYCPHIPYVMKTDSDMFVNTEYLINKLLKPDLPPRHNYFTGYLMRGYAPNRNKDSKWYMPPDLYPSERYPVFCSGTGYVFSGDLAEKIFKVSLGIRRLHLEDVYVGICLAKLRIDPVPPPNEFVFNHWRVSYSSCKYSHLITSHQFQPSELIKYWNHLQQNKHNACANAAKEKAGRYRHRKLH

β3Gal-T1 = biological target: T2, β3Gal-T1 (Homo sapiens, UniProt Q9Y5Z6); assay: Galactosyltransferase assay, recombinant β3Gal-T1, saccharide acceptors
T2 construct: The kinetic properties were determined with partially purified, secreted forms of the enzymes; made in house; host or cells: baculovirus; Sf9 / High Five insect cells, medium
T2 sequence (Q9Y5Z6 27-326 limits assumed): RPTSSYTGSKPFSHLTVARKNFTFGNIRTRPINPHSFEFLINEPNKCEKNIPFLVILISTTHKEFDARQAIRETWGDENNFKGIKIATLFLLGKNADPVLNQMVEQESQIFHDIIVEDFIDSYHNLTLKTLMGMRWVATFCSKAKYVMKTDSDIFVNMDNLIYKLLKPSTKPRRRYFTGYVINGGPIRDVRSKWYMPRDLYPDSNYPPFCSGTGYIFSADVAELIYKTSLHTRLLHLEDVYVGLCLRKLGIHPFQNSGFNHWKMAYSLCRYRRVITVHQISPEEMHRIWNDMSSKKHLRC

β3Gal-T5 = biological target: T3, β3Gal-T5 (Homo sapiens, UniProt Q9Y2C3, M85T); assay: Galactosyltransferase assay, partially purified secreted recombinant β3Gal-T5, saccharide acceptors; conditions: for β3Gal-T5 activity, substrate concentration 1 mM: acceptor 1 mM; for β3Gal-T5 activity, substrate concentration 5 mM: acceptor 5 mM
T3 construct: designed to exclude the hydrophobic transmembrane segment and to encode amino acid residues 25-310; secretion signal of vector pAcGP67B (gp67); made in house; host or cells: baculovirus; Sf9 cells (media) and High Five cells (serum-free medium, partially purified)
T3 sequence (Q9Y2C3 25-310 M85T): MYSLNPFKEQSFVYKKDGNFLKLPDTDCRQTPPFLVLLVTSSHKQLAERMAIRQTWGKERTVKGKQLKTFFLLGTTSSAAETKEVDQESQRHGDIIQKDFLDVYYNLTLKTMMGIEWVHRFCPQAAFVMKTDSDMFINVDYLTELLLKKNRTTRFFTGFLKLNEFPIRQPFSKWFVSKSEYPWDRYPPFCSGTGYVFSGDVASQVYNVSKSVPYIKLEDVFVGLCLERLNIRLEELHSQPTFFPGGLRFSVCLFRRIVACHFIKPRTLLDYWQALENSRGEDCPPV
From the text: PCR product was cloned into the BamHI site of pAcGP67B (Pharmingen). […] This PCR product was cloned into the BamHI site of pVL1193 (Pharmingen). Both soluble and full length constructs were fully sequenced to confirm fidelity. Plasmids […]5-full were co-transfected with Baculo-GoldTM DNA (Pharmingen) as described previously (Bennett, […]. and Clausen, H. cDNA cloning and expression of a novel human UDP-N-acetyl-alpha-D-galactosamine. Polypeptide N-acetyl-galactosaminyl-transferase, GalNAc-T3. J. Biol. Chem. 271:17006-17012, 1996). Recombinant Baculo-virus were obtained after two successive amplifications in Sf9 cells grown in serum-containing medium, and titers of virus were estimated by titration in 24-well plates with monitoring of enzyme activities. […] J. Biol. […] J. Biol. […] Polypeptide N-acetyl-galactosaminyl-transferase, GalNAc-T3. J. Biol. Chem. 271:17006-17012, 1996). For large scale expression amplified virus was used to infect High FiveTM cells grown in serum-free media (Invitrogen) in upright roller bottles shaking at 140 rpm and 27° C. The kinetic properties were determined with partially purified, secreted forms of the enzymes. Semipurification of enzymes from serum-free medium of infected High-FiveTM cells was performed by sequential Amberlite, DEAE-Sephacel and 5-Sepharose chromatography as described previously ([…]., et al. […] J. Biol. Chem. 272:23503-23514, 1997). Comparisons of enzymes were performed relatively to the activity obtained with βGlcNAc-Bz1 (Tables II and III). Full length enzymes were assayed with 1% Triton CF54 homogenates of washed cells. […] Reaction products were quantified by Dowex-1 chromatography. […] P. and Clausen, H. […] J. Biol. Chem. 273:29295-29305, 1998). The transfer of Gal was evaluated after acid precipitation by filtration through Whatman GF/C glass fibre filters. […] Assays with glycolipid acceptors were conducted as previously described (Holmes, E. H. […] Arch Biochem Biophys 270:630-646, 1989) in reaction mixtures containing 2.5 μmol HEPES buffer, pH 7.2, μmol MnCl2, 100 μg taurodeoxycholate or Triton CF-54, 20 μg acceptor glycolipid, 15 nmol UDP-[^14C]-galactose (13,000 cpm/nmol) and enzyme in a total volume of 100 μl. Conditions for incubation and product isolation were as previously described (Id.).

| β3Gal-T2 activity, acceptor 0.2 mM (β3Gal-T2) [nmol/min] | β3Gal-T2 ratio to value with βGlcNAc-Bzl, acceptor 0.2 mM (β3Gal-T2) | β3Gal-T2 activity, acceptor 2 mM (β3Gal-T2) [nmol/min] | β3Gal-T2 ratio to value with βGlcNAc-Bzl, acceptor 2 mM (β3Gal-T2) | β3Gal-T1 activity, acceptor 0.2 mM (β3Gal-T1) [nmol/min] | β3Gal-T1 ratio to value with βGlcNAc-Bzl, acceptor 0.2 mM (β3Gal-T1) | β3Gal-T1 activity, acceptor 2 mM (β3Gal-T1) [nmol/min] | β3Gal-T1 ratio to value with βGlcNAc-Bzl, acceptor 2 mM (β3Gal-T1) | β3Gal-T5 activity, acceptor 0.2 mM (β3Gal-T5) [nmol/min] | β3Gal-T5 ratio to value with βGlcNAc-Bzl, acceptor 0.2 mM (β3Gal-T5) | β3Gal-T5 activity, acceptor 2 mM (β3Gal-T5) [nmol/min] | β3Gal-T5 ratio to value with βGlcNAc-Bzl, acceptor 2 mM (β3Gal-T5) | Vmax (β3Gal-T5; Table V) [pmol/min] | Km (β3Gal-T5; Table V, read-out: Km) [µM] | β3Gal-T5 activity, substrate concentration 1 mM (β3Gal-T5) [nmol/min/mL] | β3Gal-T5 activity, substrate concentration 5 mM (β3Gal-T5) [nmol/min/mL] | SMILES | also measured |
| --- | --- | --- | --- | --- | --- | --- | --- | --- | --- | --- | --- | --- | --- | --- | --- | --- | --- |
| 0.0 | (0.0) | 0.0 | (0.0) | 0.0 | (0.0) | 0.0 | (0.0) | 0.0 | (0.0) | 0.01 | (0.1) |  |  |  |  | CC(=O)N[C@H]1[C@H](OC[C@H]2O[C@H](Oc3ccc([N+](=O)[O-])cc3)[C@H](NC(C)=O)[C@@H](O[C@@H]3O[C@H](CO)[C@H](O)[C@H](O)[C@H]3O)[C@H]2O)O[C@H](CO)[C@@H](O)[C@@H]1O [βGlcNAc(1,6)[βGal(1,3)]αGalNAc-p-Nph] |  |
|  |  |  |  |  |  |  |  |  |  |  |  | 873.4 | 20400 | 1.5 | 3.9 | CC(=O)N[C@H]1[C@H](OCc2ccccc2)O[C@H](CO)[C@@H](O)[C@@H]1O [β-D-GlcNAc-Bzl] | β3Gal-T2 activity with β-D-GlcNAc-Bzl (Table III) (β3Gal-T2; β-D-GlcNAc-Bzl at 80 mM): 0.04 nmol/min; β3Gal-T2 activity with βGlcNAc-Bzl (β3Gal-T2; β-D-GlcNAc-Bzl at 80 mM): 0.04 nmol/min; β3Gal-T1 activity with β-D-GlcNAc-Bzl (Table III) (β3Gal-T1; β-D-GlcNAc-Bzl at 80 mM): 0.03 nmol/min; β3Gal-T1 activity with βGlcNAc-Bzl (β3Gal-T1; β-D-GlcNAc-Bzl at 80 mM): 0.03 nmol/min; β3Gal-T5 activity with β-D-GlcNAc-Bzl (Table III) (β3Gal-T5; β-D-GlcNAc-Bzl at 20 mM): 0.1 nmol/min; β3Gal-T5 activity with βGlcNAc-Bzl (β3Gal-T5; β-D-GlcNAc-Bzl at 20 mM): 0.1 nmol/min |
| 0.0 | (0.0) | 0.0 | (0.0) | 0.0 | (0.0) | 0.0 | (0.0) | 0.3 | (0.3) | 0.2 | (2.0) | 931.1 | 2800 | 10.8 | 34.4 | CC(=O)NC1C(OC2C(O)C(CO)OC(Oc3ccc([N+](=O)[O-])cc3)C2NC(C)=O)OC(CO)C(O)C1O [β-D-GlcNAc-(1–3)-α-D-GalNAc-p-Nph] | Km (β3Gal-T5; acceptor substrate, read-out: apparent Km of β3Gal-T5): 2800 µM |
